Laboratory results reported in patent EP2951180B1, “2,6,7,8 SUBSTITUTED PURINES AS HDM2 INHIBITORS” (Merck Sharp & Dohme Corp., priority 2013, dated 2014).
pIC50: −log10 of the molar value.

Molecular target: T1, HDM2 (Homo sapiens, UniProt Q00987)
T1 construct: Thioredoxin (N); made in house; host or cells: E. coli strain BL21(DE3)Rosetta
Assay: FRET assay (HDM2 inhibition; method not described in this part)
Type: binding
Conditions: Table 2

T1 sequence (Q00987 17-125): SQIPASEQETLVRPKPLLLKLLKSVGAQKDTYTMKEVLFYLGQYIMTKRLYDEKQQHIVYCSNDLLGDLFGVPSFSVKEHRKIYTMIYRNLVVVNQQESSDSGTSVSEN

Row | SMILES | pIC50
1 | C[C@@H](Nc1nc(C(=O)O)nc2nc(-c3cccc(C(C)(C)C)c3)n(Cc3ccc(C(F)(F)F)cc3)c12)C1CC1 [Example 2.19, 8-(3-tert-butylphenyl)-6-{[(1R)-1-cyclopropylethyl]amino}-7-[4-(trifluoromethyl)benzyl]-7H-purine-2-carboxylic acid] | 6.84
2 | C[C@@H](Nc1nc(C(=O)O)nc2nc(-c3ccc(C(F)(F)F)cc3)n(Cc3ccc(C(F)(F)F)cc3)c12)C1CC1 [Example 2.20, 6-{[(1R)-1-cyclopropylethyl]amino}-7-[4-(trifluoromethyl)benzyl]-8-[4-(trifluoromethyl)phenyl]-7H-purine-2-carboxylic acid] | 5.85
3 | COc1ccc(-c2nc3nc(C(=O)O)nc(N[C@H](C)C4CC4)c3n2Cc2ccc(C(F)(F)F)cc2)cc1 [Example 2.21, 6-{[(1R)-1-cyclopropylethyl]amino}-8-(4-methoxyphenyl)-7-[4-(trifluoromethyl)benzyl]-7H-purine-2-carboxylic acid] | 6.60
4 | C[C@@H](Nc1nc(C(=O)O)nc2nc(-c3cccc(Cl)c3)n(Cc3ccc(C(F)(F)F)cc3)c12)C1CC1 [Example 2.22, 8-(3-chlorophenyl)-6-{[(1R)-1-cyclopropylethyl]amino}-7-[4-(trifluoromethyl)benzyl]-7H-purine-2-carboxylic acid] | 6.91
5 | CCc1cccc(-c2nc3nc(C(=O)O)nc(N[C@H](C)C4CCC4)c3n2Cc2ccc(C(F)(F)F)cc2)c1 [Example 2.23, 6-{[(1R)-1-cyclobutylethyl]amino}-8-(3-ethylphenyl)-7-[4-(trifluoromethyl)benzyl]-7H-purine-2-carboxylic acid] | 7.78
6 | CC(C)c1cccc(-c2nc3nc(C(=O)O)nc(N[C@H](C)C4CCC4)c3n2Cc2ccc(C(F)(F)F)cc2)c1 [Example 2.24, 6-{[(1R)-1-cyclobutylethyl]amino}-8-[3-(1-methylethyl)phenyl]-7-[4-(trifluoromethyl)benzyl]-7H-purine-2-carboxylic acid] | 7.83
7 | C[C@@H](Nc1nc(C(=O)O)nc2nc(-c3cccc(C(C)(C)C)c3)n(Cc3ccc(C(F)(F)F)cc3)c12)C1CCC1 [Example 2.25, 8-(3-tert-butylphenyl)-6-{[(1R)-1-cyclobutylethyl]amino}-7-[4-(trifluoromethyl)benzyl]-7H-purine-2-carboxylic acid] | 7.23
8 | C[C@@H](Nc1nc(C(=O)O)nc2nc(-c3cccc(OC(F)(F)F)c3)n(Cc3ccc(C(F)(F)F)cc3)c12)C1CC1 [Example 2.26, 6-{[(1R)-1-cyclopropylethyl]amino}-8-[3-(trifluoromethoxy)phenyl]-7-[4-(trifluoromethyl)benzyl]-7H-purine-2-carboxylic acid] | 6.26
9 | C[C@@H](Nc1nc(C(=O)O)nc2nc(-c3ccc(OC(F)(F)F)cc3)n(Cc3ccc(C(F)(F)F)cc3)c12)C1CC1 [Example 2.27, 6-{[(1R)-1-cyclopropylethyl]amino}-8-[4-(trifluoromethoxy)phenyl]-7-[4-(trifluoromethyl)benzyl]-7H-purine-2-carboxylic acid] | 5.94
10 | COc1cc(OC)cc(-c2nc3nc(C(=O)O)nc(N[C@H](C)C4CC4)c3n2Cc2ccc(C(F)(F)F)cc2)c1 [Example 2.28, 6-{[(1R)-1-cyclopropylethyl]amino}-8-(3,5-dimethoxyphenyl)-7-[4-(trifluoromethyl)benzyl]-7H-purine-2-carboxylic acid] | 6.34
11 | C[C@@H](Nc1nc(C(=O)O)nc2nc(-c3cccc(N(C)C)c3)n(Cc3ccc(C(F)(F)F)cc3)c12)C1CC1 [Example 2.29, 6-{[(1R)-1-cyclopropylethyl]amino}-8-[3-(dimethylamino)phenyl]-7-[4-(trifluoromethyl)benzyl]-7H-purine-2-carboxylic acid] | 6.98
12 | Cc1ccccc1-c1nc2nc(C(=O)O)nc(N[C@H](C)C3CC3)c2n1Cc1ccc(C(F)(F)F)cc1 [Example 2.30, 6-{[(1R)-1-cyclopropylethyl]amino}-8-(2-methylphenyl)-7-[4-(trifluoromethyl)benzyl]-7H-purine-2-carboxylic acid] | 6.85
13 | C[C@@H](Nc1nc(C(=O)O)nc2nc(-c3ccc(Cl)c(Cl)c3)n(Cc3ccc(C(F)(F)F)cc3)c12)C1CC1 [Example 2.31, 6-{[(1R)-1-cyclopropylethyl]amino}-8-(3,4-dichlorophenyl)-7-[4-(trifluoromethyl)benzyl]-7H-purine-2-carboxylic acid] | 6.81
14 | C[C@@H](Nc1nc(C(=O)O)nc2nc(-c3ccc(C(C)(C)C)cc3)n(Cc3ccc(C(F)(F)F)cc3)c12)C1CC1 [Example 2.32, 8-(4-tert-butylphenyl)-6-{[(1R)-1-cyclopropylethyl]amino}-7-[4-(trifluoromethyl)benzyl]-7H-purine-2-carboxylic acid] | 5.71
15 | Cc1ccc(-c2nc3nc(C(=O)O)nc(N[C@H](C)C4CC4)c3n2Cc2ccc(C(F)(F)F)cc2)cc1 [Example 2.33, 6-{[(1R)-1-cyclopropylethyl]amino}-8-(4-methylphenyl)-7-[4-(trifluoromethyl)benzyl]-7H-purine-2-carboxylic acid] | 6.40
16 | C[C@@H](Nc1nc(C(=O)O)nc2nc(-c3ccccc3OC(F)(F)F)n(Cc3ccc(C(F)(F)F)cc3)c12)C1CC1 [Example 2.34, 6-{[(1R)-1-cyclopropylethyl]amino}-8-[2-(trifluoromethoxy)phenyl]-7-[4-(trifluoromethyl)benzyl]-7H-purine-2-carboxylic acid] | 7.68
17 | C[C@@H](Nc1nc(C(=O)O)nc2nc(-c3cnn(C)c3)n(Cc3ccc(C(F)(F)F)cc3)c12)C1CC1 [Example 2.35, 6-{[(1R)-1-cyclopropylethyl]amino}-8-(1-methyl-1H-pyrazol-4-yl)-7-[4-(trifluoromethyl)benzyl]-7H-purine-2-carboxylic acid] | 6.29
18 | Cc1ccc(-c2nc3nc(C(=O)O)nc(N[C@H](C)C4CC4)c3n2Cc2ccc(C(F)(F)F)cc2)cn1 [Example 2.36, 6-{[(1R)-1-cyclopropylethyl]amino}-8-(6-methylpyridin-3-yl)-7-[4-(trifluoromethyl)benzyl]-7H-purine-2-carboxylic acid] | 5.89
19 | C[C@@H](Nc1nc(C(=O)O)nc2nc(-c3cccc(N(C)C)c3)n(Cc3ccc(C(F)(F)F)cc3)c12)C1CCC1 [Example 2.37, 6-{[(1R)-1-cyclobutylethyl]amino}-8-[3-(dimethylamino)phenyl]-7-[4-(trifluoromethyl)benzyl]-7H-purine-2-carboxylic acid] | 8.18
20 | C[C@@H](Nc1nc(C(=O)O)nc2nc(-c3cccc(C(F)(F)F)c3)n(Cc3ccc(C(F)(F)F)cc3)c12)C1CCC1 [Example 2.38, 6-{[(1R)-1-cyclobutylethyl]amino}-7-[4-(trifluoromethyl)benzyl]-8-[3-(trifluoromethyl)phenyl]-7H-purine-2-carboxylic acid] | 7.95
21 | C[C@@H](Nc1nc(C(=O)O)nc2nc(-c3cccc(OC(F)(F)F)c3)n(Cc3ccc(C(F)(F)F)cc3)c12)C1CCC1 [Example 2.39, 6-{[(1R)-1-cyclobutylethyl]amino}-8-[3-(trifluoromethoxy)phenyl]-7-[4-(trifluoromethyl)benzyl]-7H-purine-2-carboxylic acid] | 7.28
22 | C[C@@H](Nc1nc(C(=O)O)nc2nc(-c3cccc(Cl)c3)n(Cc3ccc(C(F)(F)F)cc3)c12)C1CCC1 [Example 2.40, 8-(3-chlorophenyl)-6-{[(1R)-1-cyclobutylethyl]amino}-7-[4-(trifluoromethyl)benzyl]-7H-purine-2-carboxylic acid] | 7.52
23 | CNS(=O)(=O)c1ccc(-c2nc3nc(C(=O)O)nc(N[C@H](C)C4CCC4)c3n2Cc2ccc(C(F)(F)F)cc2)cc1 [Example 2.41, 6-{[(1R)-1-cyclobutylethyl]amino}-8-[4-(methylsulfamoyl)phenyl]-7-[4-(trifluoromethyl)benzyl]-7H-purine-2-carboxylic acid] | 7.36
24 | C[C@@H](Nc1nc(C(=O)O)nc2nc(C3CC3)n(Cc3ccc(Cl)cc3)c12)C1CC1 [Example 2.42, 7-(4-chlorobenzyl)-8-cyclopropyl-6-{[(1R)-1-cyclopropylethyl]amino}-7H-purine-2-carboxylic acid] | 6.58
25 | C[C@@H](Nc1nc(C(=O)O)nc2nc(Cc3ccccc3)n(Cc3ccc(Cl)cc3)c12)C1CC1 [Example 2.43, 8-benzyl-7-(4-chlorobenzyl)-6-{ [(1R)-1-cyclopropylethyl]amino}-7H-purine-2-carboxylic acid] | 7.55
26 | C[C@@H](Nc1nc(C(=O)O)nc2nc(-c3cccnc3)n(Cc3ccc(C(F)(F)F)cc3)c12)C1CC1 [Example 2.44, 6-{[(1R)-1-cyclopropylethyl]amino}-8-pyridin-3-yl-7-[4-(trifluoromethyl)benzyl]-7H-purine-2-carboxylic acid] | 6.19
27 | C[C@@H](Nc1nc(C(=O)O)nc2nc(-c3cccc(C#N)c3)n(Cc3ccc(C(F)(F)F)cc3)c12)C1CCC1 [Example 2.45, 8-(3-cyanophenyl)-6-{[(1R)-1-cyclobutylethyl]amino}-7-[4-(trifluoromethyl)benzyl]-7H-purine-2-carboxylic acid] | 7.20
28 | COc1ncc(-c2nc3nc(C(=O)O)nc(N[C@H](C)C4CCC4)c3n2Cc2ccc(C(F)(F)F)cc2)cc1Cl [Example 2.46, 8-(5-chloro-6-methoxypyridin-3-yl)-6-{[(1R)-1-cyclobutylethyl]amino}-7-[4-(trifluoromethyl)benzyl]-7H-purine-2-carboxylic acid] | 7.29
29 | C[C@@H](Nc1nc(C(=O)O)nc2nc(-c3ccccc3F)n(Cc3ccc(C(F)(F)F)cc3)c12)C1CCC1 [Example 2.47, 6-{[(1R)-1-cyclobutylethyl]amino}-8-(2-fluorophenyl)-7-[4-(trifluoromethyl)benzyl]-7H-purine-2-carboxylic acid] | 7.59
30 | COc1ccc(-c2nc3nc(C(=O)O)nc(N[C@H](C)C4CC4)c3n2Cc2ccc(C(F)(F)F)cc2)cn1 [Example 2.48, 6-{[(1R)-1-cyclopropylethyl]amino}-8-(6-methoxypyridin-3-yl)-7-[4-(trifluoromethyl)benzyl]-7H-purine-2-carboxylic acid] | 6.17
